# Literature values as cited in patent US11801302B2, “Formulations and uses thereof” (priority 2020, dated 2023).
# “Also recorded” adds a separate entry of the source.
# Experiments:
# [1] = tested on: skin, prostate, breast, and ovarian cancer; conditions: preclinical models of skin
# [2] = tested on: central benzodiazepine receptor
# anxiety = conditions: in vivo
# diuresis = conditions: dose-dependent; only when animals were fluid overloaded, not euvolemic
# cancer = conditions: in vitro and in vivo
# [3] = tested on: UV-induced hyperpigmentation of the skin; conditions: in vivo
# [4] = compared with other vitamin K homologs
# bone = conditions: in vivo
# blood pressure = conditions: in some cases patients no longer needing antihypertensive medications
# [5] = tested on: cholesterol transport-related protein (NPC1L1); conditions: cell model
# wound = conditions: setting of a wound
# [6] = tested on: anger, mitochondrial function; conditions: in vivo
# [7] = tested on: hyperactivity induced by MK-801; conditions: in vivo
# HDL and LDL cholesterol = conditions: in vivo
# [8] = tested on: patients who respond with increased carboxylation of osteocalcin; conditions: subset of patients with increased carboxylation of osteocalcin
# chronic plaque psoriasis = conditions: topical application
# [9] = tested on: atypical/precancerous stem cells; conditions: used separately or together
# [10] = tested on: inflammatory markers PPARγ and TNFα; conditions: with emu oil; animal model of ulcerative colitis
# normal mice = conditions: observed only at a dose of 30 mg/kg in normal mice
smiles,measurement,setting,value
O=c1cc(-c2ccc(O)cc2)oc2cc(O)cc(O)c12 [Apigenin],antitumor effect,[1],exerts an antitumor effect in preclinical models
same,anxiolytic and mild sedative effects when flumazenil is administered first,[2]; benzodiazepine antagonist flumazenil,"(PMID 7617761), an effect that is reversible"
same,effects as central benzodiazepine receptor ligand,[2]; in vivo,ligand with anxiolytic and slight sedative; also recorded: ligand with anxiolytic and mild sedative effects
C=C(C)[C@H]1CC=C(C)CC1 [D-limonene],anxiolytic properties with flumazenil,anxiety,"is NOT reversed by flumazenil, indicating a"
same,"production of IFN-γ, IL-2, TNF-α, IL-4 and IL-13 by CD3(+) CD4(+) T cells; IFN-γ, IL-2, and TNF-α by CD3(+) CD8(+) T cells",T lymphocytes,viability (PMID 23059811) by inhibiting
same,diuretic effect,diuresis,more capable. D-limonene has a mild diuretic
O=C(O)c1cc(O)c(O)c(O)c1 [Gallic Acid],inhibitory properties against cancer,cancer,Plant polyphenol with strong inhibitory
CCCCC/C=C\C/C=C\CCCCCCCC(=O)O [Linoleic acid],UV-induced hyperpigmentation of the skin,[3],shown to lighten UV-induced
CC(C)=CCC/C(C)=C/CC/C(C)=C/CC/C(C)=C/CC/C(C)=C/CC/C(C)=C/CC/C(C)=C/CC1=C(C)C(=O)c2ccccc2C1=O [MK7],bioavailability,[4],higher bioavailability
same,half-life,[4],longer half-life
same,bone mineral density,bone,other vitamin K homologs. MK7 increases
CCCCCCCC/C=C\CCCCCCCC(=O)O [Oleic acid (OA)],blood pressure,blood pressure,21181463). OA has been shown to reduce blood
same,expression of cholesterol transport-related protein (NPC1L1),[5],2235880). OA has been shown to decrease
same,pain and itch receptors,pain and itch receptors,directly inhibits pain and itch receptors (PMID
same,thickness of the necrotic tissue layer in the wound,wound,"wound healing tissue mass, while decreasing"
same,anger,[6],unexpectedly has been shown to decrease anger
same,lipophilic penetration of skin cells,skin cells,Oleic acid (OA) enhances lipophilic penetration
O=c1c(O)c(-c2ccc(O)c(O)c2)oc2cc(O)cc(O)c12 [Quercetin],hyperactivity induced by NMDA receptor antagonist MK-801,[7],transmission and alleviates the hyperactivity
CCCCCCCCCCCCCCCCCC(=O)O [Stearic acid],“bad” cholesterol LDL,HDL and LDL cholesterol,cholesterol HDL while reducing the “bad”
same,“good” cholesterol HDL,HDL and LDL cholesterol,10945745) and can increase the “good”
CC(C)=CCC/C(C)=C/CC/C(C)=C/CC/C(C)=C/CC/C(C)=C/CC/C(C)=C/CC/C(C)=C/CC1=C(C)C(=O)c2ccccc2C1=O [Vitamin K2 (MK7)],"body weight, abdominal and visceral fat",[8],"reduced body weight, abdominal and visceral"
C=C1/C(=C\C=C2/CCC[C@]3(C)[C@@H]([C@H](C)/C=C/[C@@H](O)C4CC4)CC[C@@H]23)C[C@@H](O)C[C@@H]1O [calcipotriene],chronic plaque psoriasis,chronic plaque psoriasis,topical application of calcipotriene improves
"COc1cc(/C=C/C(=O)CC(=O)/C=C/c2ccc(O)c(OC)c2)ccc1O [curcumin, diferuloylmethane]",number of atypical/precancerous stem cells,[9],reduced the number of atypical/precancerous stem cells
CC(C)=CCC/C(C)=C/CO [geraniol],kidney glycogen content,GLUT2 transporter; compared to diabetic control,release of glucose from the liver; also doubled
same,renal glucose output,GLUT2 transporter; compared to diabetic control,"kidney glycogen content, doubling renal glucose"
same,GLUT2 transporter,GLUT2 transporter; geraniol from Cymbopogon martinii,inhibition of GLUT2 transporter by geraniol
CC1(C)[C@@H](O[C@H]2O[C@H](C(=O)O)[C@@H](O)[C@H](O)[C@H]2O[C@@H]2O[C@H](C(=O)O)[C@@H](O)[C@H](O)[C@H]2O)CC[C@]2(C)[C@H]3C(=O)C=C4[C@@H]5C[C@@](C)(C(=O)O)CC[C@]5(C)CC[C@@]4(C)[C@]3(C)CC[C@@H]12 [glycyrrhizin],anti-inflammatory effect by modulating PPARγ and TNFα,[10],synergizes with emu oil to exert a stronger anti-
C=C(C)C1CCC(C)(O)C(O)C1 (stereo not drawn) [limonene-1-2-diol],"production of IFN-γ, IL-2, TNF-α, IL-4 and IL-13 by CD3(+) CD4(+) T cells; IFN-γ, IL-2, and TNF-α by CD3(+) CD8(+) T cells",T lymphocytes,viability (PMID 23059811) by inhibiting
C=C(C)[C@@H]1CC=C(C(=O)O)CC1 [perillic acid],"production of IFN-γ, IL-2, TNF-α, IL-4 and IL-13 by CD3(+) CD4(+) T cells; IFN-γ, IL-2, and TNF-α by CD3(+) CD8(+) T cells",T lymphocytes,viability (PMID 23059811) by inhibiting
COc1cc(CCC(C)=O)ccc1O [zingerone],diuretic effect,normal mice,"Oil, zingerone exhibited a mild diuretic effect"
